This test has as its target T1, dopamine D1 receptor (Rattus norvegicus, UniProt P18901).
T1 construct: from tissue; host or cells: rat striatum homogenate
The test is described as follows: binding to dopamine D1 receptor in homogenates from rat striatum. On the procedure: The compounds of the invention are useful because of their pharmacological activity. In particular, the compounds of the invention are active in assays predictive for antipsychotic effect. Thus the compounds of formula I were tested for their binding to dopamine D1 receptor in homogenates from rat striatum using the method described (Life Science vol. 37, p. 1971 (1985) P. Andersen et al.) and the result appears from Table I. IC50 is the affinity of tested compounds for the dopamine D1 receptor.

T1 sequence (P18901 whole entry): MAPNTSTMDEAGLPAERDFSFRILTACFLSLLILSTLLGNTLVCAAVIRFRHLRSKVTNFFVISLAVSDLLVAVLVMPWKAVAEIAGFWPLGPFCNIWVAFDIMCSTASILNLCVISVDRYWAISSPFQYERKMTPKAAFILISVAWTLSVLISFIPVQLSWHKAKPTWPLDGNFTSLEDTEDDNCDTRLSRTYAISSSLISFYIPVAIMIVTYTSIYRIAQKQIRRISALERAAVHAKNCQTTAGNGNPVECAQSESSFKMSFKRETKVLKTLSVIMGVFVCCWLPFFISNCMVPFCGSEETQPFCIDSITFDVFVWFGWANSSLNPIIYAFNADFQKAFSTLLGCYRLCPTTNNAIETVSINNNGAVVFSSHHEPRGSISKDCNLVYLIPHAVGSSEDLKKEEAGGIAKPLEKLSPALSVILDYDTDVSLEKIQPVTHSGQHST

The IC50 is the point on the concentration scale where inhibition reaches its midpoint. A high value points to weaker potency. Compound `CN1CCc2c(ccc3ccoc23)C(c2cccc3ccoc23)C1` (racemic) [Example 1, 6-(Benzofuran-7-yl)-8-methyl-7,8,9,10-tetrahydro-6H-furo 2,3-g! 3!benzazepine] gave an IC50 of 12 nM.

The record behind these values is patent publication US5512562A, “Tricyclic 2,3,4,5-tetrahydro-1H-3-benzapines” (Novo Nordisk A/S, priority 1993, dated 1996).
